Reference: patent US4013774A (priority 1975, dated 1977)
Where two headings read alike, the source gives them in different places.

What was measured:
[1] = test system: Mosquito larvae (Aedes aegypti); assay: whole plant or invertebrate; details: 48 h, read-out: Mosquito, mortality, 0.05 ppm
[2] = test system: Flour Beetle (Tribolium confusum DuVal); assay: whole plant or invertebrate; details: in Triticum aestivum, 168 h, read-out: Flour Beetle, mortality, 5 ppm
[3] = in vivo; details: rat, po
[4] = test system: Aphids (Aphis gossypii Glover); assay: whole plant or invertebrate; details: in Cucumis sativus, 24 h; for mortality at 4 ppm: read-out: Aphids, mortality, 4 ppm; for mortality at 40 ppm: read-out: Aphids, mortality, 40 ppm (*)
[5] = test system: American Cockroach (Periplaneta americana L.); assay: whole plant or invertebrate; details: 24 h; for mortality at 16 ppm: read-out: Cockroach, mortality, 16 ppm
[6] = test system: insects; details: against a variety of insects; background, U.S. Pat. No. 3,474,171; cited from earlier work
[7] = test system: rats; details: background statement; cited from earlier work
[8] = read-out: Aphids, mortality, 0.64 ppm
[9] = topical, read-out: Cockroach, mortality, 100 ppm

| SMILES | mortality at 0.05 ppm [1] [%] | mortality at 5 ppm [2] [%] | LD50 [3] [mg/kg] | mortality at 0.64 ppm [4, 8] [%] | mortality at 4 ppm [4] [%] | mortality at 16 ppm ([5]; topical) [%] | mortality at 100 ppm [5, 9] [%] | contact and systemic activity [6] | oral toxicity, LD50 (rats) [7] [mg/kg] | mortality at 40 ppm [4] [%] | mortality at 0.64 ppm ([4]; read-out: control of aphids) [%] | mortality at 100 ppm ([5]; read-out: control of American cockroaches) [%] |
| --- | --- | --- | --- | --- | --- | --- | --- | --- | --- | --- | --- | --- |
| CN(Sc1ccc(Cl)cc1)C(=O)Oc1cccc2c1OC(C)(C)C2 [Compound 4, 2,3-dihydro-2,2-dimethyl-7-benzofuranyl N-methyl N-p-chlorophenylthiocarbamate] | 100 | 96 | 25 to 41 | 97 | 100 | 5 | 100 |  |  |  |  |  |
| CN(SC(Cl)=C(Cl)Cl)C(=O)Oc1cccc2c1OC(C)(C)C2 [Compound 5, N-methyl-N-trichlorovinylthio-2,3-dihydro-2,2-dimethyl-7-benzofuranyl carbamate] |  |  |  | 100 | 100 | 47 | 100 |  |  |  |  |  |
| CN(Sc1ccc(Cl)c(Cl)c1)C(=O)Oc1cccc2c1OC(C)(C)C2 [Compound 11] | 100 |  | 25 to 125 | 97 |  |  |  |  |  |  |  |  |
| CN(Sc1cc(Cl)ccc1Cl)C(=O)Oc1cccc2c1OC(C)(C)C2 [Compound 12] | 100 |  | 25 to 125 | 61 |  |  |  |  |  |  |  |  |
| CN(Sc1ccc(F)cc1)C(=O)Oc1cccc2c1OC(C)(C)C2 [Compound 14, N-methyl-N-4-fluorophenylthio-2,3-dihydro-2,2-dimethyl-7-benzofuranyl carbamate] | 100 |  | 25 to 125 | 92 |  |  |  |  |  |  |  |  |
| CNC(=O)Oc1cccc2c1OC(C)(C)C2 [FURADAN, N-methyl 2,3-dihydro-2,2-dimethyl-7-benzofuranyl carbamate, reference compound] | 0 | 10 | 11 | 73 to 98 | 100 | 100 | 100 | high contact and systemic activity | 5 to 11 |  |  |  |
| CN(Sc1ccc(C(C)(C)C)cc1)C(=O)Oc1cccc2c1OC(C)(C)C2 [Compound 16] |  |  | 125 to 250 |  |  | 0 | 67 |  |  | 100 |  |  |
| CCSN(C)C(=O)Oc1cccc2c1OC(C)(C)C2 [Compound 7, N-methyl-N-ethylthio-2,3-dihydro-2,2-dimethyl-7-benzofuranyl carbamate] | 26 |  | 25 to 125 | 92 |  |  |  |  |  |  |  |  |
| Cc1ccc(SN(C)C(=O)Oc2cccc3c2OC(C)(C)C3)cc1 [Compound 10] |  | 76 | 25 to 125 | 96 | 100 | 2 | 100 |  |  |  |  |  |
| CN(Sc1ccc([N+](=O)[O-])cc1)C(=O)Oc1cccc2c1OC(C)(C)C2 [Compound 15] |  |  | 25 to 60 | 96 | 100 | 97 | 100 |  |  |  |  |  |
| CN(SN(C)C(=O)Oc1cccc2c1OC(C)(C)C2)C(=O)Oc1cccc2c1OC(C)(C)C2 [Bis[O-(2,3-dihydro-2,2-dimethyl-7-benzofuranyl]-N-methylcarbamyl] sulfide] |  |  |  |  |  |  |  |  |  |  | 100 | 100 |
| CCCCCCCCCCCCSN(C)C(=O)Oc1cccc2c1OC(C)(C)C2 [Compound 8, N-methyl-N-dodecylthio-2,3-dihydro-2,2-dimethyl-7-benzofuranyl carbamate] |  |  | > 125 |  |  | 0 | 20 |  |  | 100 |  |  |
| CCCCSN(C)C(=O)Oc1cccc2c1OC(C)(C)C2 [Compound 6] | 100 |  | 60 to 125 | 97 | 100 | 95 | 100 |  |  |  |  |  |
| CN(SC(Cl)(Cl)Cl)C(=O)Oc1cccc2c1OC(C)(C)C2 [Compound 1, N-methyl-N-trichloromethylthio-2,3-dihydro-2,2-dimethyl-7-benzofuranyl carbamate] | 46 | 100 | 125 to 250 | 91 | 100 | 15 | 100 |  |  |  |  |  |
| CN(Sc1ccccc1)C(=O)Oc1cccc2c1OC(C)(C)C2 [Compound 9, N-methyl-N-phenylthio-2,3-dihydro-2,2-dimethyl-7-benzofuranyl carbamate] |  |  | 25 to 125 | 98 | 100 | 37 | 100 |  |  |  |  |  |
| CN(Sc1ccc(Br)cc1)C(=O)Oc1cccc2c1OC(C)(C)C2 [Compound 13] | 93 |  | 25 to 125 | 98 |  |  |  |  |  |  |  |  |
| CSN(C)C(=O)Oc1cccc2c1OC(C)(C)C2 [Compound 3, 2,3-dihydro-2,2-dimethyl-7-benzofuranyl N-methyl N-methylthiocarbamate] |  |  | 5 to 25 | 97 | 100 | 100 | 100 |  |  |  |  |  |
